Results from ChEMBL document CHEMBL5321270, “Discovery of Pyrazolone Carbothioamide Derivatives as Inhibitors of the Pdr1-KIX Interaction for Combinational Treatment of Azole-Resistant Candidiasis” (J Med Chem, 2023).
Values after ≈ are worked out from the molar mass of the structure shown. Active and inactive are the calls of the source. No cut-off for these calls is given here.

How the values were obtained:
[1] = Inhibition of fluorescent probe FITC tagged PDR1-KIX domain (unknown origin) protein-protein interaction assessed as inhibition constant incubated for 2 hrs by fluorescence polarization binding assay
[2] = system: Nakaseomyces glabratus; test: Antifungal activity against fluconazole-resistant Candida glabrata 0161 assessed as fungal growth inhibition incubated for 48 hrs by microplate reader assay; type: functional
[3] = system: Nakaseomyces glabratus; test: Antifungal activity against fluconazole-resistant Candida glabrata 0161 assessed as fractional inhibitory concentration incubated for 48 hrs in presence of fluconazole by microplate reader assay; type: functional
[4] = system: Nakaseomyces glabratus; test: Antifungal activity against fluconazole-resistant Candida glabrata 0161 assessed as fluconazole fractional inhibitory concentration incubated for 48 hrs in presence of fluconazole by microplate reader assay; type: functional
[5] = system: Nakaseomyces glabratus; test: Synergistic antifungal activity against fluconazole-resistant Candida glabrata 0161 assessed as fractional inhibitory concentration index incubated for 48 hrs in presence of fluconazole by checkerboard microdilution method; type: functional
[6] = system: Nakaseomyces glabratus; test: Antifungal activity against fluconazole-sensitive Candida glabrata 7669 assessed as fungal growth inhibition incubated for 48 hrs by microplate reader assay; type: functional, organism-based
[7] = system: Nakaseomyces glabratus; test: Antifungal activity against fluconazole-resistant Candida glabrata 9256 assessed as fungal growth inhibition incubated for 48 hrs by microplate reader assay; type: functional
[8] = system: Nakaseomyces glabratus; test: Antifungal activity against fluconazole-resistant Candida glabrata 8535 assessed as fungal growth inhibition incubated for 48 hrs by microplate reader assay; type: functional
[9] = system: Candida albicans; test: Antifungal activity against Candida albicans 103 assessed as fungal growth inhibition incubated for 48 hrs by microplate reader assay; type: functional, organism-based
[10] = system: Candida albicans; test: Antifungal activity against Candida albicans 5314 assessed as fungal growth inhibition incubated for 48 hrs by microplate reader assay; type: functional, organism-based
[11] = system: Candida albicans; test: Antifungal activity against Candida albicans 0029 assessed as fungal growth inhibition incubated for 48 hrs by microplate reader assay; type: functional, organism-based
[12] = system: Candida albicans; test: Antifungal activity against Candida albicans assessed as fungal growth inhibition incubated for 48 hrs by microplate reader assay; type: functional
[13] = system: Candida tropicalis; test: Antifungal activity against Candida tropicalis 10186 assessed as fungal growth inhibition incubated for 48 hrs by microplate reader assay; type: functional
[14] = system: Candida parapsilosis; test: Antifungal activity against Candida parapsilosis 20090 assessed as fungal growth inhibition incubated for 48 hrs by microplate reader assay; type: functional; conditions: Lodderomyces parapsilosis
[15] = system: [Candida] auris; test: Antifungal activity against Candida auris 0030 assessed as fungal growth inhibition incubated for 48 hrs by microplate reader assay; type: functional; conditions: Candidozyma auris
[16] = system: [Candida] auris; test: Antifungal activity against Candida auris 15448 assessed as fungal growth inhibition incubated for 48 hrs by microplate reader assay; type: functional; conditions: Candidozyma auris
[17] = system: Aspergillus fumigatus; test: Antifungal activity against Aspergillus fumigatus 7544 assessed as fungal growth inhibition incubated for 48 hrs by microplate reader assay; type: functional
[18] = system: Nannizzia gypsea; test: Antifungal activity against Microsporum gypseum assessed as fungal growth inhibition incubated for 48 hrs by microplate reader assay; type: functional
[19] = system: Trichophyton rubrum; test: Antifungal activity against Trichophyton rubrum assessed as fungal growth inhibition incubated for 48 hrs by microplate reader assay; type: functional
[20] = system: Cryptococcus neoformans; test: Antifungal activity against Cryptococcus neoformans H99 assessed as fungal growth inhibition incubated for 48 hrs by microplate reader assay; type: functional

SMILES | Ki [1] | MIC [2] | FIC [3] | fluconazole MIC in combination [4] | fractional inhibitory concentration index (FICI) [5] | Activity [6] | Activity [7] | Activity [8] | Activity [9] | Activity [10] | Activity [11] | MIC [7] | MIC [8] | MIC [12] | MIC [13] | MIC [14] | MIC [15] | MIC [16] | MIC [17] | MIC [18] | other results
N#CCC(=O)NNC(=O)Nc1ccc(Cl)cc1 | 275 µM | 64 µg/mL (≈ 253 µM) | 4 µg/mL | 16 µg/mL | 0.56 | inactive | inactive | inactive | inactive | inactive | inactive |  |  |  |  |  |  |  |  |  | 
N#CCC(=O)NNC(=S)Nc1ccc2[nH]ccc2c1 | 470 µM | > 64 µg/mL | 2 µg/mL | 16 µg/mL | 0.53 | inactive | inactive | inactive | inactive | inactive | inactive |  |  |  |  |  |  |  |  |  | 
Nc1cc(=O)n(C(=S)Nc2ccc(Cl)cc2)[nH]1 | 54.5 µM | 0.25 µg/mL (≈ 0.93 µM) | 0.063 µg/mL | 2 µg/mL | 0.31 |  |  |  |  |  |  | 0.25 µg/mL (≈ 0.93 µM) | 0.25 µg/mL (≈ 0.93 µM) | 4 µg/mL (≈ 14.9 µM) | 4 µg/mL (≈ 14.9 µM) | 4 µg/mL (≈ 14.9 µM) | 2 µg/mL (≈ 7.44 µM) | 2 µg/mL (≈ 7.44 µM) | 16 µg/mL (≈ 59.5 µM) | 1 µg/mL (≈ 3.72 µM) | MIC [19]: 1 µg/mL (≈ 3.72 µM); MIC [20]: 0.063 µg/mL (≈ 0.234 µM)
Nc1cc(=O)n(C(=S)Nc2cccc(Cl)c2Cl)[nH]1 | 27.2 µM | 0.25 µg/mL (≈ 0.825 µM) | 0.063 µg/mL | 2 µg/mL | 0.31 |  |  |  |  |  |  | 0.25 µg/mL (≈ 0.825 µM) | 0.25 µg/mL (≈ 0.825 µM) | 4 µg/mL (≈ 13.2 µM) | 4 µg/mL (≈ 13.2 µM) | 4 µg/mL (≈ 13.2 µM) | 2 µg/mL (≈ 6.6 µM) | 2 µg/mL (≈ 6.6 µM) | 16 µg/mL (≈ 52.8 µM) | 1 µg/mL (≈ 3.3 µM) | MIC [19]: 1 µg/mL (≈ 3.3 µM); MIC [20]: 0.063 µg/mL (≈ 0.208 µM)
Nc1cc(=O)n(C(=S)Nc2ccc(Cl)c(Cl)c2)[nH]1 | 109 µM | 0.25 µg/mL (≈ 0.825 µM) | 0.13 µg/mL | 0.25 µg/mL | 0.53 |  |  |  |  |  |  | 0.25 µg/mL (≈ 0.825 µM) | 0.25 µg/mL (≈ 0.825 µM) | 4 µg/mL (≈ 13.2 µM) | 4 µg/mL (≈ 13.2 µM) | 4 µg/mL (≈ 13.2 µM) | 2 µg/mL (≈ 6.6 µM) | 2 µg/mL (≈ 6.6 µM) | 16 µg/mL (≈ 52.8 µM) | 1 µg/mL (≈ 3.3 µM) | MIC [19]: 1 µg/mL (≈ 3.3 µM); MIC [20]: 0.063 µg/mL (≈ 0.208 µM)
Nc1cc(=O)n(C(=S)Nc2ccc(I)cc2)[nH]1 | 137 µM | 0.25 µg/mL (≈ 0.694 µM) | 0.13 µg/mL | 0.25 µg/mL | 0.53 |  |  |  |  |  |  | 0.25 µg/mL (≈ 0.694 µM) | 0.25 µg/mL (≈ 0.694 µM) | 4 µg/mL (≈ 11.1 µM) | 4 µg/mL (≈ 11.1 µM) | 4 µg/mL (≈ 11.1 µM) | 2 µg/mL (≈ 5.55 µM) | 2 µg/mL (≈ 5.55 µM) | 16 µg/mL (≈ 44.4 µM) | 1 µg/mL (≈ 2.78 µM) | MIC [19]: 1 µg/mL (≈ 2.78 µM); MIC [20]: 0.063 µg/mL (≈ 0.175 µM)
N#CCC(=O)NNC(=S)Nc1ccccc1Cl | 175 µM | 32 µg/mL (≈ 119 µM) | 16 µg/mL | 2 µg/mL | 0.56 | inactive | inactive | inactive | inactive | inactive | inactive |  |  |  |  |  |  |  |  |  | 
N#CCC(=O)NNC(=S)Nc1ccc(I)cc1 | 153 µM | 16 µg/mL (≈ 44.4 µM) | 2 µg/mL | 4 µg/mL | 0.25 | inactive | inactive | inactive | inactive | inactive | inactive |  |  |  |  |  |  |  |  |  | 
N#CCC(=O)NNC(=S)Nc1cccc(Cl)c1Cl | 37.1 µM | 16 µg/mL (≈ 52.8 µM) | 8 µg/mL | 2 µg/mL | 0.56 | inactive | inactive | inactive | inactive | inactive | inactive |  |  |  |  |  |  |  |  |  | 
N#CCC(=O)NNC(=S)Nc1ccc(Cl)nc1 | 54.9 µM | 32 µg/mL (≈ 119 µM) | 4 µg/mL | 8 µg/mL | 0.38 | inactive | inactive | inactive | inactive | inactive | inactive |  |  |  |  |  |  |  |  |  | 
